The source of these data is ChEMBL document CHEMBL1124898, “Novel agents effective against solid tumors: the diarylsulfonylureas. Synthesis, activities, and analysis of quantitative structure-activity relationships” (J Med Chem, 1990).

Test [1] can be described thus: Antitumor activity in vivo against the 6C3HED lymphosarcoma, dosed for 8 days at 300 mg/kg. Particulars: Mus musculus, 192 h.
The next test deals with CCRF-CEM. As to the kind of experiment: Concentration required to inhibit growth of CCRF-CEM cells in culture for 72 hr to 50% of control growth. Particulars: Homo sapiens. It counts as functional, cell-based.

The inhibition in vivo is the share of the control response that was lost under treatment. What is called IC50 is the concentration that gives 50% inhibition. Higher therefore signals lower potency.

SMILES strings stand for the structures. In brackets after ≈: the same amount, converted by molar mass.

`Cc1ccc(S(=O)(=O)NC(=O)Nc2ncccn2)cc1` came in with an inhibition in vivo at 300 mg/kg in test [1] of 0%. For the same compound, the half-maximal inhibitory concentration (IC50) with CCRF-CEM is > 20 µg/mL. For the compound `Cc1ccc(S(=O)(=O)NC(=O)Nc2ccc3c(c2)CCC3)cc1`, the inhibition in vivo at 300 mg/kg in test [1] is 5%. The same compound showed an IC50 in the test on CCRF-CEM of 15.7 µg/mL (≈ 47.5 µM). Compound `COc1cc(Cl)c(Cl)cc1NC(=O)NS(=O)(=O)c1ccc(C)cc1` displayed an inhibition in vivo at 300 mg/kg in test [1] of 3%. The IC50 in the test on CCRF-CEM is > 20 µg/mL. On to `O=C(Nc1ccc(Cl)cc1)NS(=O)(=O)c1ccc([N+](=O)[O-])cc1`, for which the inhibition in vivo at 300 mg/kg in test [1] stood at 70%. In the test with CCRF-CEM, this compound yielded an IC50 of 12.1 µg/mL (≈ 34 µM). In test [1], `COc1ccc(NC(=O)NS(=O)(=O)c2ccc(C)cc2)cc1` came in with an inhibition in vivo at 300 mg/kg of 6%. Moreover, the concentration for half-maximal inhibition (IC50) in the test with CCRF-CEM is > 20 µg/mL. On to `Nc1ccc(S(=O)(=O)NC(=O)Nc2ccc(Cl)cc2)cc1`, for which at 300 mg/kg the inhibition in vivo in test [1] was 43%. In the test with CCRF-CEM, the IC50 was determined as 13.9 µg/mL (≈ 42.7 µM).

Take `CCOc1ccc(S(=O)(=O)NC(=O)Nc2ccc(Cl)cc2)cc1`: in test [1], the inhibition in vivo at 300 mg/kg is 100%. Also, in the test with CCRF-CEM, the IC50 amounted to 13 µg/mL (≈ 36.6 µM).

For the compound `O=C(NCCc1ccccc1)NS(=O)(=O)c1ccc2c(c1)CCC2`, in test [1], the inhibition in vivo at 300 mg/kg amounted to 0%. The IC50 in the test with CCRF-CEM was > 20 µg/mL. In turn, `Cc1ccc(S(=O)(=O)NC(=O)Nc2c(F)c(F)cc(F)c2F)cc1` yielded an inhibition in vivo at 300 mg/kg in test [1] of 0%. Besides, in the test on CCRF-CEM, the IC50 was > 20 µg/mL. Consider `Cc1ccc(S(=O)(=O)NC(=O)NCc2ccc(Cl)cc2)cc1`, for which 300 mg/kg produced 14% inhibition in vivo in test [1]. Besides, in the test with CCRF-CEM, the IC50 is > 20 µg/mL.

Regarding `Cc1ccc(S(=O)(=O)NC(=O)Nc2ccc(N(C)C)cc2)cc1`, in test [1], at 300 mg/kg the inhibition in vivo was 51%. Further, the 50% inhibitory concentration (IC50) in the test with CCRF-CEM is > 20 µg/mL. With `Cc1ccc(S(=O)(=O)NC(=O)Nc2cccc(Cl)c2Cl)cc1`, the inhibition in vivo at 300 mg/kg in test [1] was 37%. Besides, the IC50 in the test with CCRF-CEM is > 20 µg/mL. In test [1], `O=C(Nc1ccc(Br)cc1)NS(=O)(=O)c1ccc2c(c1)CCC2` had an inhibition in vivo at 300 mg/kg of 92%. Moreover, the IC50 in the test with CCRF-CEM worked out at 17.6 µg/mL (≈ 44.5 µM). For the compound `CCc1cccc(S(=O)(=O)NC(=O)Nc2ccc(Cl)cc2)c1`, in test [1], the inhibition in vivo at 300 mg/kg was 95%. Besides, the IC50 with CCRF-CEM came out at 10.4 µg/mL (≈ 30.7 µM). Turning to `Cc1ccc(S(=O)(=O)NC(=O)Nc2cc(F)cc(F)c2)cc1`, 300 mg/kg produced 52% inhibition in vivo in test [1]. In the test on CCRF-CEM, the half-maximal inhibitory concentration (IC50) was > 20 µg/mL.

In test [1], `CCc1cccc(NC(=O)NS(=O)(=O)c2ccc(C)cc2)c1` showed an inhibition in vivo at 300 mg/kg of 0%. Further, the IC50 with CCRF-CEM is > 20 µg/mL. Consider `CC(=O)Nc1ccc(S(=O)(=O)NC(=O)Nc2ccc(C(F)(F)F)cc2)cc1`, for which the inhibition in vivo at 300 mg/kg in test [1] came out at 22%. Further, the IC50 in the test on CCRF-CEM is > 20 µg/mL.

Consider `O=C(Nc1ccc(F)cc1)NS(=O)(=O)c1ccc(Cl)cc1`, for which testing at 300 mg/kg in test [1] gave an inhibition in vivo of 74%. In the test on CCRF-CEM, this compound gave a half-inhibitory concentration (IC50) of 14.5 µg/mL (≈ 44.1 µM).

`Cc1ccc(S(=O)(=O)NC(=O)Nc2ccncc2)cc1` showed an inhibition in vivo at 300 mg/kg in test [1] of 24%. In addition, in the test with CCRF-CEM, the IC50 is > 20 µg/mL. In the same order, the values of `CCCc1ccc(S(=O)(=O)NC(=O)Nc2ccc(Cl)cc2)cc1` are 79% and 13.8 µg/mL (≈ 39.1 µM). In the same order, the values of `O=C(Nc1ccc(Cl)cc1)NS(=O)(=O)c1ccc(CO)cc1` are 15% and > 20 µg/mL. For the compound `Cc1ccc(S(=O)(=O)NC(=O)Nc2ccc(-c3ccccc3)cc2)cc1`, 300 mg/kg produced 0% inhibition in vivo in test [1]. In the test with CCRF-CEM, the concentration for half-maximal inhibition (IC50) was > 20 µg/mL.

Turning to `Cc1ccc(S(=O)(=O)NC(=O)Nc2ccc(OCc3ccccc3)cc2)cc1`, the inhibition in vivo at 300 mg/kg in test [1] was 0%. The IC50 with CCRF-CEM is > 20 µg/mL. Compound `COC(=O)c1ccc(S(=O)(=O)NC(=O)Nc2ccc(Cl)cc2)cc1` gave an inhibition in vivo at 300 mg/kg in test [1] of 49%. In addition, the concentration for half-maximal inhibition (IC50) in the test on CCRF-CEM was found to be 17.4 µg/mL (≈ 47.2 µM).

With `Cc1ccc(S(=O)(=O)NC(=O)Nc2ccc(S(N)(=O)=O)cc2)cc1`, in test [1], at 300 mg/kg the inhibition in vivo was 27%.

For the compound `Cc1ccc(S(=O)(=O)NC(=O)Nc2cccc(C)c2C)cc1`, the inhibition in vivo at 300 mg/kg in test [1] turned out to be 8%.

`Cc1ccc(S(=O)(=O)NC(=O)Nc2nc[nH]n2)cc1` displayed an inhibition in vivo at 300 mg/kg in test [1] of 0%. For the same compound, the IC50 with CCRF-CEM was > 20 µg/mL.

As for `Cc1ccc(S(=O)(=O)NC(=O)NCCc2ccccc2)cc1`, at 300 mg/kg the inhibition in vivo in test [1] was 24%. In the test with CCRF-CEM, the IC50 is > 20 µg/mL.

The compound `Cc1ccc(S(=O)(=O)NC(=O)Nc2ccc(S(C)(=O)=O)cc2)cc1` returned an inhibition in vivo at 300 mg/kg in test [1] of 7%. Also, the IC50 in the test with CCRF-CEM is > 20 µg/mL. In turn, `Cc1ccc(S(=O)(=O)NC(=O)Nc2ccc(OC(F)F)cc2)cc1` displayed an inhibition in vivo at 300 mg/kg in test [1] of 15%. As to `Cc1ccc(S(=O)(=O)NC(=O)Nc2cccc(C)c2)cc1`, the inhibition in vivo at 300 mg/kg in test [1] came out at 0%. For the same compound, the IC50 in the test with CCRF-CEM is > 20 µg/mL. `O=C(Nc1ccc(Cl)cc1)NS(=O)(=O)c1ccc2c(c1)OCCO2`: the inhibition in vivo at 300 mg/kg in test [1] is 49%. In the test on CCRF-CEM, this compound displayed an IC50 of 13.5 µg/mL (≈ 36.6 µM).

`CSc1cccc(NC(=O)NS(=O)(=O)c2ccc(C)cc2)c1` yielded an inhibition in vivo at 300 mg/kg in test [1] of 20%. In the test on CCRF-CEM, the IC50 was > 20 µg/mL. As to `Cc1ccc(S(=O)(=O)NC(=O)Nc2ccc(Br)c(C)c2)cc1`, the inhibition in vivo at 300 mg/kg in test [1] worked out at 81%. The same compound displayed an IC50 in the test on CCRF-CEM of 7.3 µg/mL (≈ 19 µM). For the compound `Cc1ccc(S(=O)(=O)NC(=O)NC2CCC(O)CC2)cc1` (stereo unspecified), the inhibition in vivo at 300 mg/kg in test [1] was found to be 0%. For the same compound, the IC50 in the test on CCRF-CEM was > 20 µg/mL.

Turning to `CCc1ccc(S(=O)(=O)NC(=O)Nc2ccc(Cl)cc2)cc1CC`, the inhibition in vivo at 300 mg/kg in test [1] worked out at 46%. In the test with CCRF-CEM, this compound gave a concentration for half-maximal inhibition (IC50) of 12.4 µg/mL (≈ 33.8 µM). Compound `Cc1ccc(S(=O)(=O)NC(=O)Nc2ccc(OC(F)(F)F)cc2)cc1` yielded an inhibition in vivo at 300 mg/kg in test [1] of 17%. In addition, half-maximal inhibition in the test with CCRF-CEM (IC50) was put at 18.4 µg/mL (≈ 49.2 µM). The corresponding values for `Cc1ccc(S(=O)(=O)NC(=O)Nc2ccc3[nH]ncc3c2)cc1` are 0% and > 20 µg/mL.

`Cc1ccc(S(=O)(=O)NC(=O)Nc2cc(Cl)cc(Cl)c2)cc1` came in with an inhibition in vivo at 300 mg/kg in test [1] of 21%. Further, the IC50 in the test with CCRF-CEM was > 20 µg/mL. In the same order, the values of `Cc1ccc(S(=O)(=O)N(C)C(=O)Nc2ccc(Cl)cc2)cc1` are 17% and > 20 µg/mL.

Compound `O=C(Nc1ccc(F)cc1)NS(=O)(=O)c1ccc2c(c1)CCC2` showed an inhibition in vivo at 300 mg/kg in test [1] of 39%. Moreover, the IC50 in the test with CCRF-CEM was > 20 µg/mL.

In turn, `Cc1ccc(NC(=O)NS(=O)(=O)c2ccc(C)cc2)cc1` gave an inhibition in vivo at 300 mg/kg in test [1] of 91%. This compound also yielded an IC50 in the test on CCRF-CEM of 11.6 µg/mL (≈ 38.1 µM). In the same order, the values of `CCCCc1ccc(NC(=O)NS(=O)(=O)c2ccc(C)cc2)cc1` are 8% and 19.7 µg/mL (≈ 56.9 µM). As for `Cc1ccc(S(=O)(=O)NC(=O)Nc2cc(C(C)(C)C)on2)cc1`, in test [1], the inhibition in vivo at 300 mg/kg came out at 5%.

In test [1], `Cc1ccc(S(=O)(=O)NC(=O)Nc2ccc(Cl)c(C(F)(F)F)c2)cc1` returned an inhibition in vivo at 300 mg/kg of 18%. The same compound showed an IC50 in the test on CCRF-CEM of 18.6 µg/mL (≈ 47.4 µM). Take `CCOC(=O)c1ccc(NC(=O)NS(=O)(=O)c2ccc(C)cc2)cc1`: the inhibition in vivo at 300 mg/kg in test [1] amounted to 12%. For the same compound, the IC50 in the test with CCRF-CEM was > 20 µg/mL. Compound `Cc1ccc(S(=O)(=O)NC(=O)Nc2ccc(Cl)c(C)c2)cc1` gave an inhibition in vivo at 300 mg/kg in test [1] of 85%. For the same compound, it took 7.3 µg/mL (≈ 21.5 µM) to reach half-maximal inhibition in the test with CCRF-CEM (IC50). In test [1], `O=C(NCCc1ccccc1)NS(=O)(=O)c1ccc2ccccc2c1` gave an inhibition in vivo at 300 mg/kg of 0%. For the same compound, the IC50 with CCRF-CEM is > 20 µg/mL. In turn, `Cc1ccc(S(=O)(=O)NC(=O)Nc2nncs2)cc1` registered an inhibition in vivo at 300 mg/kg in test [1] of 16%. Besides, the IC50 in the test on CCRF-CEM is > 20 µg/mL. Compound `Cc1ccc(S(=O)(=O)NC(=O)Nc2cnccn2)cc1` showed an inhibition in vivo at 300 mg/kg in test [1] of 0%. Besides, the IC50 in the test on CCRF-CEM was > 20 µg/mL.
